Read-outs that look alike come from different tables or passages of the source.
Columns and labels:
Human Cav3.1 = Human Cav3.1 (Homo sapiens (Human), UniProt O43497); test: Human Cav3.1 calcium channel patch clamp assay (SyncroPatch 384PE, HEK-293 natClytin/TASK1+Cav3.1 cell line); type: cell-based
Experimental: Pulse generation and data collection were performed with PatchController384 V1.3.0 and DataController384 V1.2.1 (Nanion Technologies). Off-line analysis was performed using Excel and Graphpad Prism (V 8.4.2) with complete data files uploaded to Dotmatics. The access resistance and apparent membrane capacitance were estimated using built-in protocols. Current was recorded in whole cell configuration from a population of cells. The cells were lifted, triturated, and resuspended at 800,000 cells/ml. The cells were allowed to recover in the cell hotel prior to experimentation. Currents were recorded at room temperature. The external solution contained the following (in mM): NaCl 80, NMDG 60, KCl 4, MgCl2 1, CaCl2 6, glucose 5 and HEPES 10 (pH=7.4, Osmolarity ˜300 mOsm). The extracellular solution was used as the wash, reference and compound delivery solution. […] The compound plate was created at 2× concentrated in the extracellular solution. The compound was diluted to 1:2 when added to the recording well. The amount of DMSO in the extracellular solution was held constant at the level used for the highest tested concentration. For the voltage clamp experiments on Cav3.1, data were sampled at 10 KHz. After establishment of the seal and the passage in the whole cell configuration, the cells were held at −120 mV. Cav3.1 current was evoked using a 100 ms step to −20 mV (to measure resting state block), followed by a 1600 ms step to −65 mV and a second 100 ms step to −20 mV (to measure voltage dependent block). The voltage protocol was applied every 15 seconds in the absence and in the presence of the compounds under investigation. […] Current amplitude (pA) was measured in the peak 1 and 2. The average of last 3 sweeps of each liquid period (vehicle, compound under investigation, full block) was calculated. Nickel-sensitive current was used to calculate the % of inhibition in the presence of the compound under investigation.
Pulse generation and data collection were performed with PatchController384 V1.3.0 and DataController384 V1.2.1 (Nanion Technologies). Off-line analysis was performed using Excel and Graphpad Prism (V 8.4.2) with complete data files uploaded to Dotmatics. The access resistance and apparent membrane capacitance were estimated using built-in protocols. Current was recorded in whole cell configuration from a population of cells.
The cells were lifted, triturated, and resuspended at 800,000 cells/ml. The cells were allowed to recover in the cell hotel prior to experimentation. Currents were recorded at room temperature. The external solution contained the following (in mM): NaCl 80, NMDG 60, KCl 4, MgCl2 1, CaCl2 6, glucose 5 and HEPES 10 (pH=7.4, Osmolarity ˜300 mOsm). The extracellular solution was used as the wash, reference and compound delivery solution.
The compound plate was created at 2× concentrated in the extracellular solution. The compound was diluted to 1:2 when added to the recording well. The amount of DMSO in the extracellular solution was held constant at the level used for the highest tested concentration. For the voltage clamp experiments on Cav3.1, data were sampled at 10 KHz. After establishment of the seal and the passage in the whole cell configuration, the cells were held at −120 mV. Cav3.1 current was evoked using a 100 ms step to −20 mV (to measure resting state block), followed by a 1600 ms step to −65 mV and a second 100 ms step to −20 mV (to measure voltage dependent block). The voltage protocol was applied every 15 seconds in the absence and in the presence of the compounds under investigation. […] Current amplitude (pA) was measured in the peak 1 and 2. The average of last 3 sweeps of each liquid period (vehicle, compound under investigation, full block) was calculated. Nickel-sensitive current was used to calculate the % of inhibition in the presence of the compound under investigation.

absence seizures = conditions: patients treated with either of these drugs; cited from earlier work
[1] = voltage dependent block (VDB), read-out: Cav3.1 (VDB) IC50
[2] = patch clamp, HEK-293 natClytin/TASK1+Cav3.1 cells, class symbols, read-out: Human Cav3.1 IC50

Human Cav3.1, sequence (O43497 whole entry): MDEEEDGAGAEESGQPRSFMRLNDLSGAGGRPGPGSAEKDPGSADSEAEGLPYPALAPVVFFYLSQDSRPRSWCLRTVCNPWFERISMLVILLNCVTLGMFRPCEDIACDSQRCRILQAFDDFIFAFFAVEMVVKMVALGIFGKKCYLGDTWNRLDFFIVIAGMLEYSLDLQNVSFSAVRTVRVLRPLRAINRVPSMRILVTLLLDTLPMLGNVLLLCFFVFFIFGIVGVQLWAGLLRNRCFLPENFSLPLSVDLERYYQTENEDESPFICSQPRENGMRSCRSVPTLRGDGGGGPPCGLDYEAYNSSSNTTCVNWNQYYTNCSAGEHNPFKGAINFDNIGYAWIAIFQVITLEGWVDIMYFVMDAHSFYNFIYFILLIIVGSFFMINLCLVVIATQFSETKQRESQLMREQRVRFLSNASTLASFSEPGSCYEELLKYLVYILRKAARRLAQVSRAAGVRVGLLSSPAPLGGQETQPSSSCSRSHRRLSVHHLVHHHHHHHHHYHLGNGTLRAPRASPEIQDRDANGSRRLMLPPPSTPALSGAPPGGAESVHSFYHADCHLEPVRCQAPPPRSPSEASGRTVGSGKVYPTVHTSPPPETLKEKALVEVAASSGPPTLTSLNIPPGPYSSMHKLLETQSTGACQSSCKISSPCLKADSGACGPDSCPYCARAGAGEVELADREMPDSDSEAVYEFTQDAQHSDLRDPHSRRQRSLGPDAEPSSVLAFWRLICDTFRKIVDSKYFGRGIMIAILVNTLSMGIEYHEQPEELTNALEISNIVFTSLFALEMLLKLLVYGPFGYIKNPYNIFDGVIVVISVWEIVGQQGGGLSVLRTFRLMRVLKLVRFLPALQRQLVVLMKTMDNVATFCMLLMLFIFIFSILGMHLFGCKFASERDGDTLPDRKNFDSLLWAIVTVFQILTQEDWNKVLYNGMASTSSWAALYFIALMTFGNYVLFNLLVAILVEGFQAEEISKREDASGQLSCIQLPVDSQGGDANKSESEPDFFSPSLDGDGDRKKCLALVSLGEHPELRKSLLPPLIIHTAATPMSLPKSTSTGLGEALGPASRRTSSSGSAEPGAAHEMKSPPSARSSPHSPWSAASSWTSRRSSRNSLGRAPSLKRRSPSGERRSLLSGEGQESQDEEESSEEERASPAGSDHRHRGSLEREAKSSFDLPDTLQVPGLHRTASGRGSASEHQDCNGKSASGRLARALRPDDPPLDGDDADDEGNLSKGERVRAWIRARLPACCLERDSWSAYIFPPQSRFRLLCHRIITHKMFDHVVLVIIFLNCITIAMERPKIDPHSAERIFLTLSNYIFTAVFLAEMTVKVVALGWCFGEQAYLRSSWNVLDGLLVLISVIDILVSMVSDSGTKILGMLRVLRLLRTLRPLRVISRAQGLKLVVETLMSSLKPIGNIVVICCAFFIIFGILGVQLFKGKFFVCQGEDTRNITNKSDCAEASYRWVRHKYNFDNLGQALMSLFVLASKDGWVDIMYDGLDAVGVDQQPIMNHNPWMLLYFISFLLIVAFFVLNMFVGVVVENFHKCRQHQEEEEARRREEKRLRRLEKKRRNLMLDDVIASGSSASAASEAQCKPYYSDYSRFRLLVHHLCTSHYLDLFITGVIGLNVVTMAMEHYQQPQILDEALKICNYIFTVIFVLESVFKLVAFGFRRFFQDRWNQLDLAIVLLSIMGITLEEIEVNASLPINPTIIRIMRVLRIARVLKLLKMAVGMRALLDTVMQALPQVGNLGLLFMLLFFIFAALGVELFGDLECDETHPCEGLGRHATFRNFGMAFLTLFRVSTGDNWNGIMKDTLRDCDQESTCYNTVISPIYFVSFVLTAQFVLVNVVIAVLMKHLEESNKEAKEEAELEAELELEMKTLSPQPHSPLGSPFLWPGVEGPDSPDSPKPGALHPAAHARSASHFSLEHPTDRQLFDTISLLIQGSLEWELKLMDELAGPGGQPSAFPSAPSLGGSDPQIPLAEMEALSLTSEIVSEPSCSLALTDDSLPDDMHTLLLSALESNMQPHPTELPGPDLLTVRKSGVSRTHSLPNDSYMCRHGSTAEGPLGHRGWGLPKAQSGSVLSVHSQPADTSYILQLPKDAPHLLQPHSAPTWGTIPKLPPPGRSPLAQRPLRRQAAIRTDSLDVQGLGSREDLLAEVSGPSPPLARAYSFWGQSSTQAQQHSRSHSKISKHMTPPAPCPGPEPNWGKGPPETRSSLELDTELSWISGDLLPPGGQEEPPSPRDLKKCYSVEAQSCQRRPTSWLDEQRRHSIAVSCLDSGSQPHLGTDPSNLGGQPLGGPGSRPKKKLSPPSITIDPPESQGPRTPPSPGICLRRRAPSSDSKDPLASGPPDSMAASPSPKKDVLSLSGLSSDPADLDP

## CC(C)(NC(=O)CN1CC2(CCC(C(=O)Nc3cccc(OC(F)F)c3)CC2)C1)C(F)(F)F [Example 69]
Human Cav3.1; [1]
  IC50: 235 nM

## CC1(NC(=O)CN2CC3(CCC(C(=O)Nc4cc(F)cc(C(F)F)c4)CC3)C2)CCC1 [Example 29]
Human Cav3.1; [2]
  IC50: < 1000 nM
Human Cav3.1; [1]
  IC50: 102 nM

## COc1cc(NC(=O)C2CCC3(CC2)CN(CC(=O)NC2(C(F)(F)F)CC2)C3)ccc1F [Example 125]
Human Cav3.1; [1]
  IC50: 588 nM

## COc1cc(F)cc(NC(=O)C2CCC3(CC2)CN(CC2(C#N)CCCCC2)C3)c1 [Example 96]
Human Cav3.1; [1]
  IC50: 814 nM

## CC(C)(C)S(=O)(=O)CCN1CC2(CCC(C(=O)Nc3cccc(Cl)c3)CC2)C1 [Example 106]
Human Cav3.1; [1]
  IC50: 739 nM

## CC(C)(NC(=O)CN1CC2(CCC(C(=O)Nc3cccc(OC(F)(F)F)c3)CC2)C1)C(F)(F)F [Example 70]
Human Cav3.1; [1]
  IC50: 333 nM

## CC1(CCN2CC3(CCC(C(=O)Nc4cc(F)cc(C(F)F)c4)CC3)C2)CC1 [Example 38]
Human Cav3.1; [2]
  IC50: < 1000 nM
Human Cav3.1; [1]
  IC50: 367 nM

## CCC(C)(C)NC(=O)CN1CC2(CCC(C(=O)Nc3cc(F)cc(C(F)F)c3)CC2)C1 [Example 27]
Human Cav3.1; [2]
  IC50: < 1000 nM
Human Cav3.1; [1]
  IC50: 182 nM

## Cc1cccc(NC(=O)C2CCC3(CC2)CN(CC(=O)NC2(C(F)(F)F)CC2)C3)c1 [Example 116]
Human Cav3.1; [1]
  IC50: 691 nM

## CC(C)(C)NC(=O)CN1CC2(CCC(C(=O)NC34CC5CC(CC(C5)C3)C4)CC2)C1 [Example 26]
Human Cav3.1; [2]
  IC50: 1000 to 10000 nM

## N#CC1(CN2CC3(CCC(C(=O)Nc4cc(F)cc(Cl)c4)CC3)C2)CCOC1 (stereo not drawn) [Example 142]
Human Cav3.1; [1]
  IC50: 2230 nM

## N#CC1(CN2CC3(CCC(C(=O)Nc4cc(F)cc(OC(F)F)c4)CC3)C2)CCCCC1 [Example 133]
Human Cav3.1; [1]
  IC50: 432 nM

## COc1cccc(NC(=O)C2CCC3(CC2)CN(CC(=O)NC2(C(F)(F)F)CC2)C3)c1 [Example 112]
Human Cav3.1; [1]
  IC50: 1430 nM

## CC(C)(C)NC(=O)CN1CC2(CCC(C(=O)Nc3cc(Cl)cc(Cl)c3)CC2)C1 [Example 1, 2-(2-(tert-butylamino)-2-oxoethyl)-N-(3,5-dichlorophenyl)-2-azaspiro[3.5]nonane-7-carboxamide]
Human Cav3.1; [2]
  IC50: < 1000 nM
Human Cav3.1; [1]
  IC50: 176 nM

## O=C(CN1CC2(CCC(CNC(=O)c3cccc(Cl)c3)CC2)C1)NC1(C(F)(F)F)CC1 [Example 147]
Human Cav3.1; [1]
  IC50: 534 nM

## O=C(CN1CC2(CCC(C(=O)Nc3cccc(Cl)c3)CC2)C1)NC1(C(F)(F)F)CCC1 [Example 105]
Human Cav3.1; [1]
  IC50: 204 nM

## O=C(CN1CC2(CCC(C(=O)Nc3ccc(F)c(OC(F)(F)F)c3)CC2)C1)NC1(C(F)(F)F)CC1 [Example 123]
Human Cav3.1; [1]
  IC50: 297 nM

## CC(C)(NC(=O)CN1CC2(CCC(C(=O)Nc3cc(F)cc(C(F)F)c3)CC2)C1)C(F)(F)F [Example 30]
Human Cav3.1; [2]
  IC50: < 1000 nM
Human Cav3.1; [1]
  IC50: 192 nM

## O=C(Nc1cc(F)cc(C(F)F)c1)C1CCC2(CC1)CN(CCNC(=O)C1(C(F)(F)F)CC1)C2 [Example 50]
Human Cav3.1; [1]
  IC50: 284 nM

## CCCC(CCC)C(=O)O [valproate]
Absence seizures
  intolerable side effects, patients affected: 24%

## CC(C)(C)NC(=O)CN1CC2(CCC(C(=O)Nc3cccc(OC(F)(F)F)c3)CC2)C1 [Example 63]
Human Cav3.1; [1]
  IC50: 492 nM

## O=C(NC12CCC(CC1)CC2)C1CCC2(CC1)CN(CC1(O)CCC(F)(F)CC1)C2 [Example 155]
Human Cav3.1; [1]
  IC50: 606 nM

## O=C(Nc1cc(F)cc(Cl)c1)C1CCC2(CC1)CN(CC1CCC(F)(F)CC1)C2 [Example 61]
Human Cav3.1; [1]
  IC50: 440 nM

## CC(C)(C)NC(=O)CN1CC2(CCC(C(=O)Nc3cc(F)cc(C(F)F)c3)CC2)C1 [Example 9]
Human Cav3.1; [2]
  IC50: < 1000 nM
Human Cav3.1; [1]
  IC50: 78.5 nM

## CN(CCN1CC2(CCC(C(=O)Nc3cc(F)cc(C(F)F)c3)CC2)C1)C(=O)C1(C)CC1 [Example 72]
Human Cav3.1; [1]
  IC50: 1040 nM

## O=C(CN1CC2(CCC(C(=O)Nc3cc(F)cc(OC(F)F)c3)CC2)C1)NC1(C(F)(F)F)CC1 [Example 119]
Human Cav3.1; [1]
  IC50: 366 nM

## [2H]C([2H])([2H])C(NC(=O)CN1CC2(CCC(C(=O)Nc3cc(F)cc(OC)c3)CC2)C1)(C([2H])([2H])[2H])C([2H])([2H])[2H] [Example 113]
Human Cav3.1; [1]
  IC50: 415 nM

## CC(C)(C)NC(=O)CN1CC2(CCC(C(=O)Nc3cc(F)cc(C(F)(F)F)c3)CC2)C1 [Example 4]
Human Cav3.1; [2]
  IC50: < 1000 nM
Human Cav3.1; [1]
  IC50: 254 nM

## O=C(Nc1cc(F)cc(Cl)c1)C1CCC2(CC1)CN(CCC1CCCC1)C2 [Example 17]
Human Cav3.1; [2]
  IC50: < 1000 nM
Human Cav3.1; [1]
  IC50: 182 nM

## N#CC1(CN2CC3(CCC(C(=O)Nc4cc(F)cc(Cl)c4)CC3)C2)CCCC1 [Example 130]
Human Cav3.1; [1]
  IC50: 296 nM

## O=C(CN1CC2(CCC(C(=O)Nc3ccc(F)c(C(F)(F)F)c3)CC2)C1)NC1(C(F)(F)F)CC1 [Example 126]
Human Cav3.1; [1]
  IC50: 723 nM

## CC1(C(=O)NCCN2CC3(CCC(C(=O)Nc4cc(F)cc(C(F)F)c4)CC3)C2)CCC1 [Example 53]
Human Cav3.1; [1]
  IC50: 447 nM

## O=C(Nc1cc(F)cc(Cl)c1)C1CCC2(CC1)CN(CCC1CCC(F)(F)CC1)C2 [Example 13]
Human Cav3.1; [2]
  IC50: < 1000 nM
Human Cav3.1; [1]
  IC50: 239 nM

## N#CC1(CN2CC3(CCC(C(=O)Nc4cc(F)cc(Cl)c4)CC3)C2)CCC1 [Example 122]
Human Cav3.1; [1]
  IC50: 750 nM

## CC1(NC(=O)CN2CC3(CCC(C(=O)Nc4cc(F)cc(Cl)c4)CC3)C2)CCC1 [Example 12]
Human Cav3.1; [2]
  IC50: < 1000 nM
Human Cav3.1; [1]
  IC50: 112 nM

## O=C(Nc1cc(F)cc(C(F)F)c1)C1CCC2(CC1)CN(CC1CCC(F)(F)CC1)C2 [Example 28]
Human Cav3.1; [2]
  IC50: < 1000 nM
Human Cav3.1; [1]
  IC50: 370 nM

## O=C(Nc1cc(F)cc(Cl)c1)C1CCC2(CC1)CN(CCS(=O)(=O)c1ccccc1)C2 [Example 91]
Human Cav3.1; [1]
  IC50: 576 nM

## CC(C)(C)NC(=O)CN1CC2(CCC(C(=O)NC34CCC(CC3)CC4)CC2)C1 [Example 8]
Human Cav3.1; [2]
  IC50: < 1000 nM
Human Cav3.1; [1]
  IC50: 663 nM

## CC(C)(C)NC(=O)CN1CC2(CCC(C(=O)Nc3cc(F)cc(OC(F)F)c3)CC2)C1 [Example 7]
Human Cav3.1; [2]
  IC50: < 1000 nM
Human Cav3.1; [1]
  IC50: 118 nM

## CC(C)(C)NC(=O)CN1CC2(CCC(C(=O)Nc3cccc(Cl)c3)CC2)C1 [Example 39]
Human Cav3.1; [1]
  IC50: 294 nM

## O=C(CN1CC2(CCC(C(=O)Nc3ccc(F)c(Cl)c3)CC2)C1)NC1(C(F)(F)F)CC1 [Example 115]
Human Cav3.1; [1]
  IC50: 219 nM

## N#CC1(CN2CC3(CCC(C(=O)Nc4cc(F)cc(Cl)c4)CC3)C2)CCOCC1 [Example 139]
Human Cav3.1; [1]
  IC50: 1370 nM

## CC(C)(C)ONC(=O)CN1CC2(CCC(C(=O)Nc3cc(F)cc(Cl)c3)CC2)C1 [Example 67]
Human Cav3.1; [1]
  IC50: 580 nM

## N#CC1(CN2CC3(CCC(C(=O)Nc4cc(F)cc(C(F)F)c4)CC3)C2)CC1 [Example 134]
Human Cav3.1; [1]
  IC50: 1500 nM

## O=C(CN1CC2(CCC(C(=O)Nc3cccc(Cl)c3)CC2)C1)NC1(C(F)(F)F)CC1 [Example 104]
Human Cav3.1; [1]
  IC50: 302 nM

## O=C(CN1CC2(CCC(C(=O)NC34CC5CC(CC(C5)C3)C4)CC2)C1)NC1(C(F)(F)F)CC1 [Example 151]
Human Cav3.1; [1]
  IC50: 404 nM

## N#CC1(CN2CC3(CCC(C(=O)Nc4cc(Cl)cc(Cl)c4)CC3)C2)CC1 [Example 128]
Human Cav3.1; [1]
  IC50: 572 nM
